# From publication PMC10531759, “Key Amino Acid Residues Involved in Binding Interactions between Bactrocera minax Odorant-Binding Protein 3 (BminOBP3) and Undecanol” (Insects, 2023)
# Changes are numbered by the printed parent chain. Entries after “also recorded” stand apart in the source; their conditions may differ.
# Assays:
# [1] = biological target: T1, BminOBP3 (wild-type protein) (Bactrocera minax, UniProt A0A3G2LEF2); test: Fluorescence competitive binding assay (1-NPN displacement by undecanol), wild-type protein; conditions: pH 5.0 compared with pH 7.4; Figure S8 and Table S3
# T1 sequence (A0A3G2LEF2 27-115): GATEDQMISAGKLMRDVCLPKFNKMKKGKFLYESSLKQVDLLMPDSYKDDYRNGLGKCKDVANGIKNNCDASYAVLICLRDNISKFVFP
# Procedure: (§1) In order to explore the binding affinities of BminOBP3 and its mutants to undecanol, the binding assays were conducted on a fluorescence spectrophotometer (F-7000; Hitachi, Japan) with parameters set same as the previous study. The fluorescent probe 1-NPN and undecanol were diluted in the HPLC methanol to 1 mM, whereas the protein samples were dissolved in 20 mM Tris-HCL pH 7.4 to obtain 2 μM protein solutions.
# (§2) To measure the dissociation constant (Kd) of 1-NPN to BminOBP3 and mutants, aliquots of 1 mM 1-NPN were added to the 2 μM protein solution with a final concentration of 1-NPN ranging from 0 to 22 μM, and the resulting fluorescence intensity values of the maximum fluorescence emission were recorded for the construction of binding curves and Scatchard plots. Bound 1-NPN was determined by fluorescence intensities with the assumption that the protein was 100% active, and it binds the ligands at a 1:1 stoichiometric ratio when saturated. […] The maximal fluorescence intensity values were plotted against undecanol concentrations. The inhibition constant (Ki) of each protein was calculated based on the following equation: Ki = [IC50]/(1 + [1-NPN]/K1-NPN). IC50 is the concentration of ligand halving initial fluorescence intensity; [1-NPN] is the free concentration of 1-NPN; and K1-NPN is the dissociation constant of the protein/1-NPN complex. […]
# [2] = biological target: T2, T-OBP3 (mutant that lacks I116-P122 from the C-terminus of BminOBP3) (Bactrocera minax, UniProt A0A3G2LEF2); test: Fluorescence competitive binding assay (1-NPN displacement by undecanol), C-terminus truncated mutant; conditions: compared with wild-type protein
# T2 sequence (A0A3G2LEF2 27-108): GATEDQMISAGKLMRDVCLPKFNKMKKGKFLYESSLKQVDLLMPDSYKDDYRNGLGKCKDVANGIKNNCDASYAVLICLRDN
# Procedure: as §1, §2
# [3] = biological target: T3, V120A (BminOBP3-V120A mutant) (Bactrocera minax, UniProt A0A3G2LEF2, V113A); test: Fluorescence competitive binding assay (1-NPN displacement by undecanol), V120A mutant; conditions: undecanol up to 36 μM
# T3 sequence (A0A3G2LEF2 27-115 V113A): T1 sequence (A0A3G2LEF2 27-115) with V87A
# Procedure: as §1, §2
# [4] = biological target: T4, 3D2a (mutant that lacks F121 and P122 from the C-terminus of BminOBP3) (Bactrocera minax, UniProt A0A3G2LEF2); test: Fluorescence competitive binding assay (1-NPN displacement by undecanol), 3D2a mutant; conditions: undecanol up to 36 μM
# T4 sequence (A0A3G2LEF2 27-113): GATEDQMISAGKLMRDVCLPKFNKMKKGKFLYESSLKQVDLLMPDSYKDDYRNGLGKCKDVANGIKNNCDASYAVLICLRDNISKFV
# Procedure: as §1, §2
# [5] = system: T57A (BminOBP3-T57A mutant); test: Fluorescence binding assay with undecanol, T57A mutant; set-up: species or system Bactrocera minax; conditions: Figure S7 and Table S2
# Procedure: as §1
# as §2, with “[1-NPN]/K1-NPN).” for “[1-NPN]/K1-NPN). IC50 is the concentration of ligand halving initial fluorescence intensity; [1-NPN] is the free concentration of 1-NPN; and K1-NPN is the dissociation constant of the protein/1-NPN complex.”
# (§3) (the information regarding 13 ligands see Supplemental Data Table S4). […] Conformation 3 was an effective conformation, which is shown in Figure 2A, as it was validated by subsequent mutagenesis studies and fluorescence binding assays. […]
# [6] = system: Y84A (BminOBP3-Y84A mutant); test: Fluorescence binding assay with undecanol, Y84A mutant; set-up: species or system Bactrocera minax; conditions: Figure S7 and Table S2
# Procedure: as §1
# as §2, with “[1-NPN]/K1-NPN).” for “[1-NPN]/K1-NPN). IC50 is the concentration of ligand halving initial fluorescence intensity; [1-NPN] is the free concentration of 1-NPN; and K1-NPN is the dissociation constant of the protein/1-NPN complex.”
# as §3
# [7] = biological target: T1, BminOBP3 (wild-type protein); set-up: method as in PMID 34668560; conditions: competitive fluorescence binding experiments of previous study; cited from earlier work
smiles,measurement,setting,value
"CCCCCCCCCCCO [undecanol, 1-undecanol]",affinity between BminOBP3 and undecanol at acidic pH (in words),[1],significant decrease
same,affinity for undecanol compared with BminOBP3 (in words),[2],significant decrease
same,binding to undecanol (in words),[3],completely abolished; also recorded: completely lost their binding capacity
same,binding to undecanol (in words),[4],completely abolished; also recorded: completely lost their binding capacity
same,affinity to undecanol compared with the wild-type protein (in words),[5],obvious increase
same,affinity to undecanol compared with the wild-type protein (in words),[6],obvious increase
same,binding affinity of BminOBP3 among 13 ligands tested (in words),[7],strong binding affinity
